In PubChem BioAssay AID330 (DTP/NCI, 2004) one finds T/C data, which are given here for 15 compounds.

Each structure is given as a SMILES string. “And” between values parts separate entries of the source, which are not always exact repeats. Equal values may be shown once. Inconclusive results and toxic doses are left out.

The test system of the experiment is P388 leukemia ip, CD2F1 mice, survival T/C. Briefly: NCI In Vivo Anticancer Drug Screen. Data for tumor model P388 Leukemia (intraperitoneal) in CD2F1 (CDF1) mice. The following applies: endpoint: median survival time, higher = longer survival. The method, boiled down:
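Mice carrying the transplanted tumor received test compound or vehicle. Survival was recorded in each group, and the value is the treated-group measurement divided by that of the vehicle-treated control group.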

[1] abbreviates: dose: 50.0 mg/kg/injection, schedule: Q01DX009 (ip), vehicle: saline with Tween-80.
Where [2] appears, read: dose: 100.0 mg/kg/injection, schedule: Q01DX009 (ip), vehicle: saline with Tween-80.
Where [3] appears, read: dose: 200.0 mg/kg/injection, schedule: Q01DX009 (ip), vehicle: saline with Tween-80.
Setting [4] is: dose: 50.0 mg/kg/injection, schedule: Q01DX009 (ip), vehicle: saline.
The mark [5] stands for this setting: dose: 100.0 mg/kg/injection, schedule: Q01DX009 (ip), vehicle: saline.
[6] abbreviates: dose: 200.0 mg/kg/injection, schedule: Q01DX009 (ip), vehicle: saline.

Turning to `CSc1c2c(c(C)c3c1[nH]c1ccccc13)C=NCC2`, the T/C was 102 % of control (dose: 6.25 mg/kg/injection, schedule: Q04DX002 (ip), vehicle: distilled water + Tween-80); 89 % of control (dose: 12.5 mg/kg/injection, schedule: Q04DX002 (ip), vehicle: distilled water + Tween-80); 98 % of control (dose: 25.0 mg/kg/injection, schedule: Q04DX002 (ip), vehicle: distilled water + Tween-80); 88 % of control (dose: 50.0 mg/kg/injection, schedule: Q04DX002 (ip), vehicle: distilled water + Tween-80); 88 % of control (dose: 100.0 mg/kg/injection, schedule: Q04DX002 (ip), vehicle: distilled water + Tween-80).
Take `C=C(COC(C)=O)[C@@H](C)C(=O)C1OCOC(C2CC(=O)NC(=O)C2)[C@@H]1OC(C)=O` (stereo partly specified): the T/C was 98 % of control (dose: 0.01 mg/kg/injection, schedule: Q01DX009 (ip), vehicle: distilled water + alcohol); 102 % of control (dose: 0.03 mg/kg/injection, schedule: Q01DX009 (ip), vehicle: distilled water + alcohol); 102 % of control (dose: 0.06 mg/kg/injection, schedule: Q01DX009 (ip), vehicle: distilled water + alcohol); 102 % of control (dose: 0.12 mg/kg/injection, schedule: Q01DX009 (ip), vehicle: distilled water + alcohol).
For `CCCCCCCCCCCCCCCC(O)S(=O)(=O)O` (stereo unspecified), the T/C reads like this: (dose: 25.0 mg/kg/injection, schedule: Q01DX009 (ip), vehicle: saline with Tween-80) 100 % of control; under setting [1], 100 % of control; under setting [2], 100 % of control.
In the case of `N#CCC1(c2ccccc2)CCCCC1`, the T/C by setting is: under setting [1], 97 % of control; under setting [2], 107 % of control; under setting [3], 107 % of control.
On to `CCOC(=O)c1ccc(NC(=O)Nc2nc3cc(C)c(C)cc3s2)cc1`, for which the T/C by setting is: under setting [1], 99 % of control; under setting [2], 95 % of control; under setting [3], 93 % of control.
For `Cc1cc([N+](=O)[O-])cc(C)c1OC(=O)Nc1c(Cl)cccc1Cl`, the T/C by setting is: (dose: 30.0 mg/kg/injection, schedule: Q01DX005 (ip), vehicle: saline with Tween-80) 101 % of control; (dose: 60.0 mg/kg/injection, schedule: Q01DX005 (ip), vehicle: saline with Tween-80) 100 % of control and 95 % of control; (dose: 120.0 mg/kg/injection, schedule: Q01DX005 (ip), vehicle: saline with Tween-80) 99 % of control and 100 % of control; (dose: 240.0 mg/kg/injection, schedule: Q01DX005 (ip), vehicle: saline with Tween-80) 94 % of control.
In the case of `CCCCCC(=O)SCC(=O)OCC(=O)[C@]1(O)Cc2c(O)c3c(c(O)c2[C@@H](OC2CC(N)C(O)C(C)O2)C1)C(=O)c1c(OC)cccc1C3=O` (stereo partly specified), the T/C (dose: 0.78 mg/kg/injection, schedule: Q01DX009 (ip), vehicle: water) is 169 % of control; the T/C (dose: 1.56 mg/kg/injection, schedule: Q01DX009 (ip), vehicle: water) was 174 % of control and 179 % of control; the T/C (dose: 3.13 mg/kg/injection, schedule: Q01DX009 (ip), vehicle: water) was 194 % of control and 209 % of control; the T/C (dose: 6.25 mg/kg/injection, schedule: Q01DX009 (ip), vehicle: water) is 104 % of control.
Turning to `COc1cc(Cc2nnc(NN=C(C)C)[nH]c2=O)cc(OC)c1OC`, the T/C is, setting by setting: (dose: 50.0 mg/kg/injection, schedule: Q01DX001 (ip), vehicle: Klucel (hydroxypropylcellulose) (HPC)) 115 % of control; (dose: 100.0 mg/kg/injection, schedule: Q01DX001 (ip), vehicle: Klucel (hydroxypropylcellulose) (HPC)) 98 % of control and 100 % of control; (dose: 200.0 mg/kg/injection, schedule: Q01DX001 (ip), vehicle: Klucel (hydroxypropylcellulose) (HPC)) 100 % of control and 124 % of control; (dose: 400.0 mg/kg/injection, schedule: Q01DX001 (ip), vehicle: Klucel (hydroxypropylcellulose) (HPC)) 105 % of control and 116 % of control.
As to `CCOc1cc(/C=C2\SC(=O)N(CC)C2=O)ccc1O`, the T/C is, setting by setting: under setting [1], 108 % of control; under setting [2], 109 % of control; under setting [3], 90 % of control.
For `Cc1ccc2nc(N3C(=O)CSC3=S)sc2c1`, the T/C is, setting by setting: (dose: 50.0 mg/kg/injection, schedule: Q01DX009 (ip), vehicle: Klucel (hydroxypropylcellulose) (HPC)) 100 % of control; (dose: 100.0 mg/kg/injection, schedule: Q01DX009 (ip), vehicle: Klucel (hydroxypropylcellulose) (HPC)) 96 % of control.
As to `C1COCCOCCNCCOCCOCCN1`, the T/C was 95 % of control (dose: 50.0 mg/kg/injection, schedule: Q01DX005 (ip), vehicle: saline) and 98 % of control (dose: 100.0 mg/kg/injection, schedule: Q01DX005 (ip), vehicle: saline).
With `CC(=O)NCCCCCCNC(C)=O`, the T/C (dose: 25.0 mg/kg/injection, schedule: Q01DX009 (ip), vehicle: saline) is 100 % of control and 111 % of control and 97 % of control; the T/C (dose: 31.0 mg/kg/injection, schedule: Q03HX008 (ip), vehicle: saline) was 101 % of control; the T/C (dose: 41.7 mg/kg/injection, schedule: Q03HX024 (ip), vehicle: saline) was 105 % of control; the T/C under setting [4] is 100 % of control and 103 % of control and 119 % of control; the T/C (dose: 62.5 mg/kg/injection, schedule: Q03HX008 (ip), vehicle: saline) was 103 % of control; the T/C (dose: 83.0 mg/kg/injection, schedule: Q03HX024 (ip), vehicle: saline) is 107 % of control. The T/C was 103 % of control and 104 % of control under setting [5]; 103 % of control (dose: 125.0 mg/kg/injection, schedule: Q03HX008 (ip), vehicle: saline); 110 % of control (dose: 166.7 mg/kg/injection, schedule: Q03HX024 (ip), vehicle: saline); 100 % of control and 105 % of control and 117 % of control under setting [6]; 99 % of control (dose: 250.0 mg/kg/injection, schedule: Q01DX001 (ip), vehicle: saline); 106 % of control (dose: 250.0 mg/kg/injection, schedule: Q03HX008 (ip), vehicle: saline). For the same compound, the T/C was 110 % of control (dose: 333.0 mg/kg/injection, schedule: Q03HX024 (ip), vehicle: saline); 101 % of control (dose: 333.0 mg/kg/injection, schedule: Q04DX003 (ip), vehicle: saline); 100 % of control and 105 % of control and 111 % of control (dose: 400.0 mg/kg/injection, schedule: Q01DX009 (ip), vehicle: saline); 99 % of control (dose: 500.0 mg/kg/injection, schedule: Q01DX001 (ip), vehicle: saline); 113 % of control (dose: 500.0 mg/kg/injection, schedule: Q03HX008 (ip), vehicle: saline); 111 % of control (dose: 500.0 mg/kg/injection, schedule: Q03HX024 (ip), vehicle: saline). For the same compound, the T/C by setting is: (dose: 666.7 mg/kg/injection, schedule: Q04DX003 (ip), vehicle: saline) 108 % of control; (dose: 800.0 mg/kg/injection, schedule: Q01DX009 (ip), vehicle: saline) 101 % of control and 108 % of control and 114 % of control; (dose: 1000.0 mg/kg/injection, schedule: Q01DX001 (ip), vehicle: saline) 101 % of control; (dose: 1000.0 mg/kg/injection, schedule: Q03HX008 (ip), vehicle: saline) 107 % of control; (dose: 1333.0 mg/kg/injection, schedule: Q04DX003 (ip), vehicle: saline) 106 % of control; (dose: 2000.0 mg/kg/injection, schedule: Q01DX001 (ip), vehicle: saline) 103 % of control. Also, the T/C (dose: 2666.0 mg/kg/injection, schedule: Q04DX003 (ip), vehicle: saline) is 105 % of control.
`O=C1CN(CCN2CCCCC2)CC(=O)N2Cc3ccccc3CN12`: the T/C by setting is: (dose: 12.5 mg/kg/injection, schedule: Q01DX005 (ip), vehicle: saline with Tween-80) 102 % of control; (dose: 25.0 mg/kg/injection, schedule: Q01DX005 (ip), vehicle: saline with Tween-80) 104 % of control; (dose: 50.0 mg/kg/injection, schedule: Q01DX005 (ip), vehicle: saline with Tween-80) 100 % of control and 102 % of control.
For `CC1CC(C)(C)OB(OCCc2ccc(Cl)cc2Cl)O1` (stereo unspecified), the T/C reads like this: under setting [4], 99 % of control; under setting [5], 102 % of control; under setting [6], 100 % of control.
On to `COc1ccc2oc3c(ccc(=O)n3C)c(=O)c2c1`, for which the T/C runs as follows: (dose: 0.69 mg/kg/injection, schedule: Q01DX001 (ip), vehicle: saline with Tween-80) 99 % of control; (dose: 138.0 mg/kg/injection, schedule: Q01DX001 (ip), vehicle: saline with Tween-80) 96 % of control; (dose: 276.0 mg/kg/injection, schedule: Q01DX001 (ip), vehicle: saline with Tween-80) 91 % of control.
